In this test the test system is HCV proteins in Rep5.1 cells (replicon cell line). Kind of test: Inhibitory activity of HCV: cell-based ELISA in replicon cell line Rep5.1 (decrease of HCV proteins). Further details: species or system hepatitis C virus. The note with it: Hepatitis C virus, 72 h, Rep5.1 cells, 72 hours with drug. In outline:
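HCV protein loss was quantified by ELISA on methanol/acetone-fixed cells 72 h after drug addition, probing with selected HCV-positive human plasma, and IC50 was defined as 50% reduction relative to untreated wells. The cells were Rep5.1 replicon cells cultured in DMEM-10 with 500 μg/ml G418, plated at 5000 per well and dosed with serial dilutions after 4 h attachment.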

Setting [1] is: concentration at which 50% of HCV proteins was decreased, Table 2, read-out: IC50.
[2] abbreviates: decrease of HCV proteins measured by HCV antibody, Table 1, read-out: Level (IC50 values classified).

Read-outs that look alike come from different tables or passages of the source. Some results are limits rather than exact numbers.

One may read the IC50 as the point on the concentration scale where inhibition reaches its midpoint. Turning to `CC1=C(C(=O)OCCc2cccc([N+](=O)[O-])c2)C(COC(=O)c2ccc(C(=O)O)cc2)NC(=S)N1` (stereo not drawn) [90″, terephthalic acid mono-{6-methyl-5-[2-(3-nitro-phenyl)-ethoxycarbonyl]-2-thioxo-1,2,3,4-tetrahydro-pyrimidin-4-ylmethyl}ester], the half-maximal inhibitory concentration (IC50) runs as follows: under setting [1], 6900 nM; under setting [2], 1000 to 10000 nM.

On to `CC1=C(C(=O)OCc2cc(F)c(F)c(F)c2)C(CF)NC(=S)N1` (stereo not drawn) [91′, 4-fluoromethyl-6-methyl-2-thioxo-1,2,3,4-tetrahydro-pyrimidine-5-carboxylic acid 3,4,5-trifluoro-benzyl ester], for which the IC50 under setting [1] amounted to 1600 nM and the IC50 under setting [2] was 1000 to 10000 nM.

`CCN(CC)c1ccc(CCOC(=O)C2=C(C)NC(=S)NC2CO)cc1[N+](=O)[O-]` (stereo not drawn) [91″, 4-Hydroxymethyl-6-methyl-2-thioxo-1,2,3,4-tetrahydro-pyrimidine-5-carboxylic acid 2-(4-diethylamino-3-nitro-phenyl)-ethyl ester]: the IC50 was 700 nM under setting [1] and < 1000 nM under setting [2].

As for `CCCN(CC)c1ccc(CCOC(=O)C2=C(C)NC(=S)NC2CO)cc1[N+](=O)[O-]` (stereo not drawn) [92″, 4-Hydroxymethyl-6-methyl-2-thioxo-1,2,3,4-tetrahydro-pyrimidine-5-carboxylic acid 2-[4-(ethyl-propylamino)-3-nitro-phenyl]-ethyl ester], the IC50 is, setting by setting: under setting [1], 400 nM; under setting [2], < 1000 nM.

Turning to `CCCN(CCC)c1ccc(CCOC(=O)C2=C(C)NC(=S)NC2CO)cc1[N+](=O)[O-]` (stereo not drawn) [93″, 4-Hydroxymethyl-6-methyl-2-thioxo-1,2,3,4-tetrahydro-pyrimidine-5-carboxylic acid 2-(4-dipropylamino-3-nitro-phenyl)-ethyl ester], the IC50 was 500 nM under setting [1] and < 1000 nM under setting [2].

`CCN(c1ccc(CCOC(=O)C2=C(C)NC(=S)NC2CO)cc1[N+](=O)[O-])C1CC1` (stereo not drawn) [94″, 4-Hydroxymethyl-6-methyl-2-thioxo-1,2,3,4-tetrahydro-pyrimidine-5-carboxylic acid 2-[4-(cyclopropyl-ethyl-amino)-3-nitro-phenyl]-ethyl ester]: the IC50 is 800 nM under setting [1] and < 1000 nM under setting [2].

As to `CCCN(c1ccc(CCOC(=O)C2=C(C)NC(=S)NC2CO)cc1[N+](=O)[O-])C1CC1` (stereo not drawn) [95″, 4-Hydroxymethyl-6-methyl-2-thioxo-1,2,3,4-tetrahydro-pyrimidine-5-carboxylic acid 2-[4-(cyclopropyl-propyl-amino)-3-nitro-phenyl]-ethyl ester], the IC50 under setting [1] was 600 nM and the IC50 under setting [2] was < 1000 nM.

As to `C=CCN(C)c1ccc(CCOC(=O)C2=C(C)NC(=S)NC2CO)cc1[N+](=O)[O-]` (stereo not drawn) [96″, 4-Hydroxymethyl-6-methyl-2-thioxo-1,2,3,4-tetrahydro-pyrimidine-5-carboxylic acid 2-[4-(allyl-methyl-amino)-3-nitro-phenyl]-ethyl ester], the IC50 under setting [1] came to 900 nM and the IC50 under setting [2] was < 1000 nM.

For the molecule `C=CCN(CC)c1ccc(CCOC(=O)C2=C(C)NC(=S)NC2CO)cc1[N+](=O)[O-]` (stereo not drawn) [97″, 4-Hydroxymethyl-6-methyl-2-thioxo-1,2,3,4-tetrahydro-pyrimidine-5-carboxylic acid 2-[4-(allyl-ethyl-amino)-3-nitro-phenyl]-ethyl ester], the IC50 runs as follows: under setting [1], 600 nM; under setting [2], < 1000 nM.

Consider `CC1=C(C(=O)OCCc2ccc(N(C)CC3CC3)c([N+](=O)[O-])c2)C(CO)NC(=S)N1` (stereo not drawn) [98″, 4-Hydroxymethyl-6-methyl-2-thioxo-1,2,3,4-tetrahydro-pyrimidine-5-carboxylic acid 2-[4-(cyclopropylmethyl-methyl-amino)-3-nitro-phenyl]-ethyl ester], for which the IC50 is, setting by setting: under setting [1], 1000 nM; under setting [2], < 1000 nM.

Turning to `CC1=C(C(=O)OCCc2ccc(N3CCCC3)c([N+](=O)[O-])c2)C(CO)NC(=S)N1` (stereo not drawn) [99″, 4-Hydroxymethyl-6-methyl-2-thioxo-1,2,3,4-tetrahydro-pyrimidine-5-carboxylic acid 2-(3-nitro-4-pyrrolidin-1-yl-phenyl)-ethyl ester], the IC50 is, setting by setting: under setting [1], 1000 nM; under setting [2], < 1000 nM.

For the molecule `CC1=C(C(=O)OCCc2ccc(N3CCCCC3)c([N+](=O)[O-])c2)C(CO)NC(=S)N1` (stereo not drawn) [100″, 4-Hydroxymethyl-6-methyl-2-thioxo-1,2,3,4-tetrahydro-pyrimidine-5-carboxylic acid 2-(3-nitro-4-piperidin-1-yl-phenyl)-ethyl ester], the IC50 was 900 nM under setting [1] and < 1000 nM under setting [2].

For the molecule `CC1=C(C(=O)OCCc2ccc(N3CC=CC3)c([N+](=O)[O-])c2)C(CO)NC(=S)N1` (stereo not drawn) [101″, 4-Hydroxymethyl-6-methyl-2-thioxo-1,2,3,4-tetrahydro-pyrimidine-5-carboxylic acid 2-[4-(2,5-dihydro-pyrrol-1-yl)-3-nitro-phenyl]-ethyl ester], the IC50 is, setting by setting: under setting [1], 1200 nM; under setting [2], 1000 to 10000 nM.

As for `CC1=C(C(=O)OCc2ccccc2)CNC(=S)N1` [Compound 6, 6-methyl-2-thioxo-1,2,3,4-tetrahydro-pyrimidine-5-carboxylic acid benzyl ester], the IC50 is 1000 nM under setting [1] and < 1000 nM under setting [2].

Consider `CC1=C(C(=O)OCc2ccc([N+](=O)[O-])cc2)CNC(=S)N1` [Compound 7, 6-methyl-2-thioxo-1,2,3,4-tetrahydro-pyrimidine-5-carboxylic acid 4-nitro-benzyl ester], for which the half-maximal inhibitory concentration (IC50) under setting [1] came to 2500 nM and the IC50 under setting [2] is 1000 to 10000 nM.

As for `COc1ccc(COC(=O)C2=C(C)NC(=S)NC2)cc1` [Compound 8, 6-methyl-2-thioxo-1,2,3,4-tetrahydro-pyrimidine-5-carboxylic acid 4-methoxy-benzyl ester], the IC50 is, setting by setting: under setting [1], 3000 nM; under setting [2], 1000 to 10000 nM.

Regarding `CC1=C(C(=O)OCc2ccc3c(c2)OCO3)CNC(=S)N1` [Compound 9, 6-methyl-2-thioxo-1,2,3,4-tetrahydro-pyrimidine-5-carboxylic acid benzo[1,3]dioxol-5-ylmethyl ester], the IC50 was 4000 nM under setting [1] and 1000 to 10000 nM under setting [2].

For the molecule `CC1=C(C(=O)OCc2cccc3ccccc23)CNC(=S)N1` [Compound 10, 6-methyl-2-thioxo-1,2,3,4-tetrahydro-pyrimidine-5-carboxylic acid naphthalen-1-ylmethyl ester], the IC50 by setting is: under setting [1], 1000 nM; under setting [2], < 1000 nM.

On to `COC(=O)c1ccc(COC(=O)C2=C(C)NC(=S)NC2)cc1` [Compound 11, 6-methyl-2-thioxo-1,2,3,4-tetrahydro-pyrimidine-5-carboxylic acid 4-methoxycarbonyl-benzyl ester], for which the half-inhibitory concentration (IC50) under setting [1] was > 100000 nM and the IC50 under setting [2] was > 20000 nM.

On to `CC1=C(C(=O)OCc2ccco2)CNC(=S)N1` [Compound 12, 6-methyl-2-thioxo-1,2,3,4-tetrahydro-pyrimidine-5-carboxylic acid furan-2-ylmethyl ester], for which the 50% inhibitory concentration (IC50) is 22000 nM under setting [1] and 10000 to 20000 nM under setting [2].

Regarding `CC1=C(C(=O)OCCCc2ccncc2)CNC(=S)N1` [Compound 13, 6-methyl-2-thioxo-1,2,3,4-tetrahydro-pyrimidine-5-carboxylic acid 3-pyridin-4-yl-propyl ester], the IC50 reads like this: under setting [1], > 100000 nM; under setting [2], > 20000 nM.

Take `CC1=C(C(=O)OCCCc2ccccc2)CNC(=S)N1` [Compound 14, 6-methyl-2-thioxo-1,2,3,4-tetrahydro-pyrimidine-5-carboxylic acid 3-phenyl-propyl ester]: the IC50 was 200 nM under setting [1] and < 1000 nM under setting [2].

On to `CC1=C(C(=O)OCCOCc2ccccc2)CNC(=S)N1` [Compound 15, 6-methyl-2-thioxo-1,2,3,4-tetrahydro-pyrimidine-5-carboxylic acid 2-benzyloxy-ethyl ester], for which the IC50 under setting [1] was 3000 nM and the IC50 under setting [2] lay in the range of 1000 to 10000 nM.

In the case of `C=CCOC(=O)C1=C(C)NC(=S)NC1` [Compound 16, 6-methyl-2-thioxo-1,2,3,4-tetrahydro-pyrimidine-5-carboxylic acid allyl ester], the IC50 was 74000 nM under setting [1] and > 20000 nM under setting [2].

Turning to `O=C(OCc1ccccc1)C1=C(c2cccc3ccccc23)NC(=S)NC1` [Compound 17, 6-naphthalen-1-yl-2-thioxo-1,2,3,4-tetrahydro-pyrimidine-5-carboxylic acid benzyl ester], the IC50 runs as follows: under setting [1], 100000 nM; under setting [2], > 20000 nM.

Regarding `O=C(OCc1ccccc1)C1=C(Cc2ccccc2)NC(=S)NC1` [Compound 18, 6-benzyl-2-thioxo-1,2,3,4-tetrahydro-pyrimidine-5-carboxylic acid benzyl ester], the 50% inhibitory concentration (IC50) was 5000 nM under setting [1] and 1000 to 10000 nM under setting [2].

Consider `O=C(OCc1ccccc1)C1=C(CCc2ccccc2)NC(=S)NC1` [Compound 19, 6-phenethyl-2-thioxo-1,2,3,4-tetrahydro-pyrimidine-5-carboxylic acid benzyl ester], for which the IC50 is 1600 nM under setting [1] and < 1000 nM under setting [2].

Regarding `CC1=C(C(=O)OCc2ccc(-c3ccccc3)cc2)CNC(=S)N1` [Compound 22, 6-methyl-2-thioxo-1,2,3,4-tetrahydro-pyrimidine-5-carboxylic acid biphenyl-4-ylmethyl ester], the IC50 was 400 nM under setting [1] and < 1000 nM under setting [2].

For `CC1=C(C(=O)O[C@H](C)c2ccccc2)CNC(=S)N1` [Compound 23, 6-methyl-2-thioxo-1,2,3,4-tetrahydro-pyrimidine-5-carboxylic acid (R)-1-phenyl-ethyl ester], the IC50 by setting is: under setting [1], 5400 nM; under setting [2], 1000 to 10000 nM.

In the case of `CC1=C(C(=O)OCCc2scnc2C)CNC(=S)N1` [Compound 24, 6-methyl-2-thioxo-1,2,3,4-tetrahydro-pyrimidine-5-carboxylic acid 2-(4-methyl-thiazol-5-yl)-ethyl ester], the half-maximal inhibitory concentration (IC50) is 70000 nM under setting [1] and > 20000 nM under setting [2].
